“And” between values parts separate entries of the source, which are not always exact repeats. Equal entries are not always repeated.
Biological target: SARS-CoV-2 NSP3 Mac1 (Severe acute respiratory syndrome coronavirus 2, UniProt P0DTD1)
Type: binding
Settings: PanDDA 1-BDC (background density correction) of the event; crystal soak 100 mM; PanDDA run dmso_34

SMILES	1-BDC
CC(C)c1noc(CCc2nc(-c3ccnc4[nH]ccc34)no2)n1 [Compound Z1347]	0.03
Nc1ncnc2c1ncn2CCCc1ccsc1 [Compound Z5972]	0.16
CNc1cc(-c2noc(CN3CCCC3=O)n2)ncn1 [Compound Z6028]	0.05
c1csc(CC2CCN(c3ncnc4[nH]ccc34)C2)n1 (stereo not drawn) [Compound Z6891]	0.3
Cc1oc(=O)oc1CSc1ncnc2[nH]cnc12 [Compound Z7450]	0.23
OCc1cn(C2CCCN(c3ncnc4[nH]ccc34)C2)nn1 (stereo not drawn) [Compound Z7864]	0.05

Same assay, conditions: PanDDA 1-BDC of the event; compound stock 100 mM, Echo dispense volume 40 nl

SMILES	1-BDC
CC1(C)CN(c2ncnc3[nH]c4ccccc4c23)CC(CC(=O)O)O1 (stereo not drawn) [Compound Z2215]	0.05

Same assay, conditions: PanDDA 1-BDC of the event; compound stock 100 mM, Echo dispense volume 80 nl

SMILES	1-BDC
O=C(O)C(F)(F)F.O=C(O)C1CN(c2ncnc3[nH]c4ccccc4c23)CC12CCC2 (stereo not drawn) [Compound Z4706]	0.21
O=C1OCCN1C1CCN(c2ncnc3[nH]c4cc(F)ccc4c23)C1 (stereo not drawn) [Compound Z5107]	0.09
CO[C@@H]1CN(c2ncnc3[nH]c4cc(F)ccc4c23)C[C@@H](CO)O1 [Compound Z8973]	0.25

Same assay, conditions: PanDDA 1-BDC value of the event; crystal soak, compound concentration 100 mM; per dataset

SMILES	1-BDC
Nc1ncc(S(=O)(=O)N2CC(F)(F)C[C@H]2C(=O)O)cn1 [Compound Z1314]	0.49
Cc1nc(Cn2cnc3c(N)nc(N)nc32)cs1 [Compound Z8569]	0.4
Nc1nc(N)c2ncn(Cc3csc(C4CC4)n3)c2n1 [Compound Z8585]	0.18

Same assay, conditions: PanDDA event map 1-BDC; crystal soak, Compound_concentration 100 mM; PanDDA run dmso_34 or nohits_35 per dataset

SMILES	1-BDC
O=C(Nc1ccc(C(=O)N[C@@H]2c3cccc(O)c3C[C@H]2C(=O)O)cc1)NC1CC1 [Compound E2160]	0.08 and 0.1
CC1(C)CN(c2ncnc3[nH]c4ccccc4c23)CC(CC(=O)O)O1 (stereo not drawn) [Compound Z2215]	0.04
O=C(O)C(F)(F)F.O=C(O)C1CN(c2ncnc3[nH]c4ccccc4c23)CC12CCC2 (stereo not drawn) [Compound Z4706]	0.17
O=C1OCCN1C1CCN(c2ncnc3[nH]c4cc(F)ccc4c23)C1 (stereo not drawn) [Compound Z5107]	0.06
O=C(O)CC1CCN(c2ncnc3[nH]c4ccccc4c23)CCC1(F)F (stereo not drawn) [Compound Z6423]	0.07
CO[C@@H]1CN(c2ncnc3[nH]c4cc(F)ccc4c23)C[C@@H](CO)O1 [Compound Z8973]	0.23
O=C(Nc1ccc(C(=O)N[C@H]2c3cccc(O)c3C[C@H]2C(=O)O)cc1)NC1CC1 [Compound Z9050]	0.21 and 0.27

Same assay, conditions: PanDDA event map background density correction; crystal soak, Compound_concentration 100 mM; PanDDA run dmso_34

SMILES	1-BDC
O=C(Cc1ccc(-n2cccn2)cc1)OCC1CCCNC1=O (stereo not drawn) [Compound Z5505]	0.08

Same assay, conditions: PanDDA event map background density correction; crystal soak, compound concentration 100 mM

SMILES	1-BDC
Nc1ccc(C(=O)N2CC(c3nnc(S)o3)C2)c(Cl)n1 [Compound Z1366]	0.1
CC(Cc1ccco1)C(=O)N[C@@H](CC(=O)O)c1ccc2c(c1)OCO2 (stereo partly drawn) [Compound Z1877]	0.15

Same assay, conditions: PanDDA event map, 1-BDC of the hit dataset; crystal soak, compound concentration 100 mM

SMILES	1-BDC
Nc1ncc(S(=O)(=O)N2CC(F)(F)C[C@H]2C(=O)O)cn1 [Compound Z1314]	0.3
Nc1nc(N)c2ncn(Cc3csc(C4CC4)n3)c2n1 [Compound Z8585]	0.4

Same assay, conditions: PanDDA event map, 1 minus background density correction; crystal soaking of Mac1

SMILES	1-BDC (PanDDA)	1-BDC
O=C(Nc1ccc(C(=O)N[C@@H]2c3cccc(O)c3C[C@H]2C(=O)O)cc1)NC1CC1 [Compound E2160]	0.1	–
Nc1ncc(S(=O)(=O)N2CC(F)(F)C[C@H]2C(=O)O)cn1 [Compound Z1314]	–	0.19
CC(Cc1ccco1)C(=O)N[C@@H](CC(=O)O)c1ccc2c(c1)OCO2 (stereo partly drawn) [Compound Z1877]	0.15	–
CC1(C)CN(c2ncnc3[nH]c4ccccc4c23)CC(CC(=O)O)O1 (stereo not drawn) [Compound Z2215]	0.05	–
O=C(O)C(F)(F)F.O=C(O)C1CN(c2ncnc3[nH]c4ccccc4c23)CC12CCC2 (stereo not drawn) [Compound Z4706]	0.14	–
O=C1OCCN1C1CCN(c2ncnc3[nH]c4cc(F)ccc4c23)C1 (stereo not drawn) [Compound Z5107]	0.06	–
O=C(Cc1ccc(-n2cccn2)cc1)OCC1CCCNC1=O (stereo not drawn) [Compound Z5505]	–	0.08
c1csc(CC2CCN(c3ncnc4[nH]ccc34)C2)n1 (stereo not drawn) [Compound Z6891]	–	0.3
Cc1oc(=O)oc1CSc1ncnc2[nH]cnc12 [Compound Z7450]	–	0.23
OCc1cn(C2CCCN(c3ncnc4[nH]ccc34)C2)nn1 (stereo not drawn) [Compound Z7864]	–	0.05
Cc1nc(Cn2cnc3c(N)nc(N)nc32)cs1 [Compound Z8569]	–	0.4
Nc1nc(N)c2ncn(Cc3csc(C4CC4)n3)c2n1 [Compound Z8585]	–	0.18
CO[C@@H]1CN(c2ncnc3[nH]c4cc(F)ccc4c23)C[C@@H](CO)O1 [Compound Z8973]	0.23	–
O=C(Nc1ccc(C(=O)N[C@H]2c3cccc(O)c3C[C@H]2C(=O)O)cc1)NC1CC1 [Compound Z9050]	0.27	–

Same assay, conditions: PanDDA event map; crystal soak, Compound_concentration 100 mM, Echo_dispense_volume 40 nl

SMILES	1-BDC
O=C(O)C(F)(F)F.O=C(O)C1CN(c2ncnc3[nH]c4ccccc4c23)CC12CCC2 (stereo not drawn) [Compound Z4706]	0.14
O=C1OCCN1C1CCN(c2ncnc3[nH]c4cc(F)ccc4c23)C1 (stereo not drawn) [Compound Z5107]	0.06
CO[C@@H]1CN(c2ncnc3[nH]c4cc(F)ccc4c23)C[C@@H](CO)O1 [Compound Z8973]	0.23

Same assay, conditions: crystal soak, Compound_concentration 100 mM, Echo dispense 40 nl; PanDDA run dmso_34

SMILES	PanDDA hit?
O=C(Cc1ccc(-n2cccn2)cc1)OCC1CCCNC1=O (stereo not drawn) [Compound Z5505]	TRUE

Same assay, conditions: crystal soak, Compound_concentration 100 mM, Echo dispense 40 nl; PanDDA run dmso_34 or nohits_35 per dataset

SMILES	PanDDA hit?
O=C(Nc1ccc(C(=O)N[C@@H]2c3cccc(O)c3C[C@H]2C(=O)O)cc1)NC1CC1 [Compound E2160]	TRUE
CC1(C)CN(c2ncnc3[nH]c4ccccc4c23)CC(CC(=O)O)O1 (stereo not drawn) [Compound Z2215]	TRUE
O=C(O)C(F)(F)F.O=C(O)C1CN(c2ncnc3[nH]c4ccccc4c23)CC12CCC2 (stereo not drawn) [Compound Z4706]	TRUE
O=C1OCCN1C1CCN(c2ncnc3[nH]c4cc(F)ccc4c23)C1 (stereo not drawn) [Compound Z5107]	TRUE
O=C(O)CC1CCN(c2ncnc3[nH]c4ccccc4c23)CCC1(F)F (stereo not drawn) [Compound Z6423]	TRUE
CO[C@@H]1CN(c2ncnc3[nH]c4cc(F)ccc4c23)C[C@@H](CO)O1 [Compound Z8973]	TRUE
O=C(Nc1ccc(C(=O)N[C@H]2c3cccc(O)c3C[C@H]2C(=O)O)cc1)NC1CC1 [Compound Z9050]	TRUE

Same assay, conditions: crystal soak, Compound_concentration 100 mM, Echo_dispense_volume 40 nl; PanDDA run (background map) dmso_34, nohits_35 or nohits_62

SMILES	PanDDA hit?
O=C(O)C(F)(F)F.O=C(O)C1CN(c2ncnc3[nH]c4ccccc4c23)CC12CCC2 (stereo not drawn) [Compound Z4706]	TRUE
O=C1OCCN1C1CCN(c2ncnc3[nH]c4cc(F)ccc4c23)C1 (stereo not drawn) [Compound Z5107]	TRUE
CO[C@@H]1CN(c2ncnc3[nH]c4cc(F)ccc4c23)C[C@@H](CO)O1 [Compound Z8973]	TRUE

Same assay, conditions: crystal soak, compound concentration 100 mM; PanDDA run dmso_34; series docking_lead-like_1

SMILES	PanDDA hit?
CC(C)c1noc(CCc2nc(-c3ccnc4[nH]ccc34)no2)n1 [Compound Z1347]	TRUE
Nc1ncnc2c1ncn2CCCc1ccsc1 [Compound Z5972]	TRUE
CNc1cc(-c2noc(CN3CCCC3=O)n2)ncn1 [Compound Z6028]	TRUE
c1csc(CC2CCN(c3ncnc4[nH]ccc34)C2)n1 (stereo not drawn) [Compound Z6891]	TRUE
Cc1oc(=O)oc1CSc1ncnc2[nH]cnc12 [Compound Z7450]	TRUE
OCc1cn(C2CCCN(c3ncnc4[nH]ccc34)C2)nn1 (stereo not drawn) [Compound Z7864]	TRUE

Same assay, conditions: crystal soak, compound concentration 100 mM; per dataset

SMILES	PanDDA hit?
Nc1ncc(S(=O)(=O)N2CC(F)(F)C[C@H]2C(=O)O)cn1 [Compound Z1314]	TRUE
Cc1nc(Cn2cnc3c(N)nc(N)nc32)cs1 [Compound Z8569]	TRUE
Nc1nc(N)c2ncn(Cc3csc(C4CC4)n3)c2n1 [Compound Z8585]	TRUE

Same assay, conditions: crystal soak, compound stock 100 mM, Echo dispense volume 40 nl

SMILES	PanDDA hit?
CC1(C)CN(c2ncnc3[nH]c4ccccc4c23)CC(CC(=O)O)O1 (stereo not drawn) [Compound Z2215]	TRUE

Same assay, conditions: crystal soak, compound stock 100 mM, Echo dispense volume 80 nl

SMILES	PanDDA hit?
O=C(O)C(F)(F)F.O=C(O)C1CN(c2ncnc3[nH]c4ccccc4c23)CC12CCC2 (stereo not drawn) [Compound Z4706]	TRUE
O=C1OCCN1C1CCN(c2ncnc3[nH]c4cc(F)ccc4c23)C1 (stereo not drawn) [Compound Z5107]	TRUE
CO[C@@H]1CN(c2ncnc3[nH]c4cc(F)ccc4c23)C[C@@H](CO)O1 [Compound Z8973]	TRUE

Same assay, conditions: ligand modeled in crystal structure; crystal soak, Compound_concentration 100 mM; PanDDA run dmso_34

SMILES	Modeled?
O=C(Cc1ccc(-n2cccn2)cc1)OCC1CCCNC1=O (stereo not drawn) [Compound Z5505]	TRUE

Same assay, conditions: ligand modeled in structure; compound stock 100 mM, Echo dispense volume 40 nl

SMILES	Modeled?
CC1(C)CN(c2ncnc3[nH]c4ccccc4c23)CC(CC(=O)O)O1 (stereo not drawn) [Compound Z2215]	TRUE

Same assay, conditions: ligand modeled in the crystal structure; crystal soak 100 mM; PanDDA run dmso_34

SMILES	Modeled?
c1csc(CC2CCN(c3ncnc4[nH]ccc34)C2)n1 (stereo not drawn) [Compound Z6891]	TRUE
Cc1oc(=O)oc1CSc1ncnc2[nH]cnc12 [Compound Z7450]	TRUE
OCc1cn(C2CCCN(c3ncnc4[nH]ccc34)C2)nn1 (stereo not drawn) [Compound Z7864]	TRUE

Same assay, conditions: ligand modeled in the crystal structure; crystal soak, compound concentration 100 mM

SMILES	Modeled?
CC(Cc1ccco1)C(=O)N[C@@H](CC(=O)O)c1ccc2c(c1)OCO2 (stereo partly drawn) [Compound Z1877]	TRUE

Same assay, conditions: ligand modeled in the crystal structure; crystal soak, compound concentration 100 mM; per dataset

SMILES	Modeled?
Cc1nc(Cn2cnc3c(N)nc(N)nc32)cs1 [Compound Z8569]	TRUE
Nc1nc(N)c2ncn(Cc3csc(C4CC4)n3)c2n1 [Compound Z8585]	TRUE

Same assay, conditions: ligand modeled in this dataset; crystal soak, Compound_concentration 100 mM

SMILES	Modeled?
O=C(Nc1ccc(C(=O)N[C@@H]2c3cccc(O)c3C[C@H]2C(=O)O)cc1)NC1CC1 [Compound E2160]	TRUE
O=C(Nc1ccc(C(=O)N[C@H]2c3cccc(O)c3C[C@H]2C(=O)O)cc1)NC1CC1 [Compound Z9050]	TRUE

Same assay, conditions: ligand modeled; crystal soak, Compound_concentration 100 mM, Echo_dispense_volume 40 nl

SMILES	Modeled?
O=C(O)C(F)(F)F.O=C(O)C1CN(c2ncnc3[nH]c4ccccc4c23)CC12CCC2 (stereo not drawn) [Compound Z4706]	TRUE
O=C1OCCN1C1CCN(c2ncnc3[nH]c4cc(F)ccc4c23)C1 (stereo not drawn) [Compound Z5107]	TRUE
CO[C@@H]1CN(c2ncnc3[nH]c4cc(F)ccc4c23)C[C@@H](CO)O1 [Compound Z8973]	TRUE

Same assay, conditions: ligand occupancy after refinement (phenix.refine); crystal soaking of Mac1

SMILES	Refined occupancy
O=C(Nc1ccc(C(=O)N[C@@H]2c3cccc(O)c3C[C@H]2C(=O)O)cc1)NC1CC1 [Compound E2160]	20
Nc1ncc(S(=O)(=O)N2CC(F)(F)C[C@H]2C(=O)O)cn1 [Compound Z1314]	38
CC(Cc1ccco1)C(=O)N[C@@H](CC(=O)O)c1ccc2c(c1)OCO2 (stereo partly drawn) [Compound Z1877]	30
CC1(C)CN(c2ncnc3[nH]c4ccccc4c23)CC(CC(=O)O)O1 (stereo not drawn) [Compound Z2215]	10
O=C(O)C(F)(F)F.O=C(O)C1CN(c2ncnc3[nH]c4ccccc4c23)CC12CCC2 (stereo not drawn) [Compound Z4706]	28
O=C1OCCN1C1CCN(c2ncnc3[nH]c4cc(F)ccc4c23)C1 (stereo not drawn) [Compound Z5107]	12
O=C(Cc1ccc(-n2cccn2)cc1)OCC1CCCNC1=O (stereo not drawn) [Compound Z5505]	16
c1csc(CC2CCN(c3ncnc4[nH]ccc34)C2)n1 (stereo not drawn) [Compound Z6891]	60
Cc1oc(=O)oc1CSc1ncnc2[nH]cnc12 [Compound Z7450]	25
OCc1cn(C2CCCN(c3ncnc4[nH]ccc34)C2)nn1 (stereo not drawn) [Compound Z7864]	10
Cc1nc(Cn2cnc3c(N)nc(N)nc32)cs1 [Compound Z8569]	80
Nc1nc(N)c2ncn(Cc3csc(C4CC4)n3)c2n1 [Compound Z8585]	36
CO[C@@H]1CN(c2ncnc3[nH]c4cc(F)ccc4c23)C[C@@H](CO)O1 [Compound Z8973]	60
O=C(Nc1ccc(C(=O)N[C@H]2c3cccc(O)c3C[C@H]2C(=O)O)cc1)NC1CC1 [Compound Z9050]	54
